In patent US7960425B2, “Pyrazole compounds and thrombopoietin receptor activators” (Nissan Chemical Industries, Ltd., priority 2005, dated 2011):

Columns and labels:
[1] = tested on: Human bone marrow CD34+ cells; experiment: Megakaryocyte colony stimulating activity (megakaryocyte colony forming method); type: cell-based; details: 11 days, MegaCult-C, colonies of at least 8 stained megakaryocyte cells, average of at least 2 wells
Experimental: The action of the compounds of Synthetic Examples 2 to 6 of the present invention and Reference Synthetic Examples 6 to 7 on the proliferation, differentiation and maturation of megakaryocyte cells was measured by the megakaryocyte colony forming method using human bone marrow cells. Human bone marrow CD34^+ cells (Cambrex Bio Science Walkersville) were incubated on 2-well chamber slide for 11 days in a CO2 incubator (5% Co2, 37° C.) using MegaCult™-C (StemCell Technologies) containing 0.1% (v/v) of the compounds of Synthetic Examples dissolved in dimethyl sulfoxide. After dehydration and fixation, the cells were stained with an anti-glycoprotein IIb/IIIa antibody in accordance with the instruction by the manufacturer. The colonies consisting of at least 8 stained megakaryocyte cells in each well were counted under a microscope. The megakaryocyte colony counts in at least 2 wells were averaged.

[2] = Plasma concentration after oral administration to rats, determined by UT7/EPO-mpl proliferation bioassay; type: in vivo; details: rat, male Sprague-Dawley rats, 10 mg/kg, between 0.5 and 2 hours after administration, read-out: Cmax (maximum concentration in blood)
Experimental: Each of the compounds of Synthetic Examples was suspended in a 99/1 liquid mixture of 0.5% methylcellulose/Polyoxyethylene Sorbitan Monooleate and orally administered to 7-week-old male Sprague-Dawley rats (Japan SLC, Inc.) at a dose of 10 mg/kg/10 mL through a stomach tube. Between 0.5 and 2 hours after the administration of the compounds, blood was periodically collected from the cervical vein with heparin as the anticoagulant. The blood was centrifuged at 3500 min^−1 for 10 minutes to obtain plasma. The plasma was added to the assay system used for assay of proliferation of a thrombopoietin-dependent cell line UT7/EPO-mpl in Assay Example 1 at final concentrations of from 0.1 to 3%, and the cell proliferation was assayed. The concentration of each compound in plasma was calculated from the cell proliferation in the presence of plasma by comparison with a standard curve of cell proliferation versus compound concentration prepared for each compound. The maximum concentration (Cmax) of each of the compounds of Synthetic Examples in blood between 0.5 and 2 hours after the oral administration to rats is shown in Table 3.

Row | SMILES | Colony count at 1 μg/mL [1] | Cmax [2]
1 | C/C(=N\NC(=O)c1ccc(C(=O)O)s1)c1nn(C)c(-c2ccc(C(C)(C)C)cc2)c1O [Reference Synthetic Ex. 6, reference compound] | 1 | 
2 | CCN(CC)C(=O)c1ccc(C(=O)NN=C(C)c2nn(C)c(-c3ccc(C(F)(F)F)cc3)c2O)s1.[K] [Synthetic Example 1, 5-{1-[4-hydroxy-1-methyl-5-(4-trifluoromethylphenyl)-1H-pyrazol-3-yl]ethylidenehydrazinocarbonyl}thiophene-2-carboxylic Acid Diethylamide Potassium Salt] |  | 760 ng/mL
3 | CC(=NNC(=O)c1ccc(C(=O)NCc2ccccn2)s1)c1nn(C)c(-c2ccc(C(F)(F)F)cc2)c1O.[K] [Synthetic Example 2, 5-{1-[4-hydroxy-1-methyl-5-(4-trifluoromethylphenyl)-1H-pyrazol-3-yl]ethylidenehydrazinocarbonyl}thiophene-2-carboxylic Acid 2-picolylamide Potassium Salt] | 121 | 1200 ng/mL
4 | CC(=NNC(=O)c1ccc(C(=O)NC(C)C)s1)c1nn(C)c(-c2ccc(C(F)(F)F)cc2)c1O [Synthetic Example 3, 5-{1-[4-hydroxy-1-methyl-5-(4-trifluoromethylphenyl)-1H-pyrazol-3-yl]ethylidenehydrazinocarbonyl}thiophene-2-carboxylic Acid 2-propylamide] | 141 | 
5 | CC(=NNC(=O)c1ccc(C(=O)NCc2ccncc2)s1)c1nn(C)c(-c2ccc(C(F)(F)F)cc2)c1O [Synthetic Example 4, 5-{1-[4-hydroxy-1-methyl-5-(4-trifluoromethylphenyl)-1H-pyrazol-3-yl]ethylidenehydrazinocarbonyl}thiophene-2-carboxylic Acid 4-picolyamide] | 111 | 
6 | COCCNC(=O)c1ccc(C(=O)NN=C(C)c2nn(C)c(-c3ccc(C(F)(F)F)cc3)c2O)s1 [Synthetic Example 5, 5-{1-[4-hydroxy-1-methyl-5-(4-trifluoromethylphenyl)-1H-pyrazol-3-yl]ethylidenehydrazinocarbonyl}thiophene-2-carboxylic Acid 2-methoxyethylamide] | 335 | 
7 | CC(=NNC(=O)c1ccc(C(=O)NCc2ccncc2)s1)c1nn(C)c(-c2ccc(Cl)c(Cl)c2)c1O [Synthetic Example 6, 5-{1-[5-(3,4-dichlorophenyl)-4-hydroxy-1-methyl-1H-pyrazol-3-yl]ethylidenehydrazinocarbonyl}thiophene-2-carboxylic Acid 4-picolylamide] | 173 | 
